Experimental data from PMC7497625, “Machine-Vision-Enabled Salt Dissolution Analysis” (Analytical Chemistry, 2020).
In brackets after ≈: the same amount, converted by molar mass. Marks after values point to notes of the source that are not given here.

Legend:
[1] = Miniaturized shake-flask (SF) experiment in USP buffers with HPLC-UV, pH measurement and XRPD of remaining solids; format: physicochemical
Protocol: For NAP, both phosphate and borate buffers were used at pH 8.0. […] At 48, 72, and 96 h the rotation was stopped, pHs were measured, and samples were centrifuged at constant temperature and 21 100g for 15 min prior to sampling of the supernatant. The supernatants were appropriately diluted and analyzed with reverse-phase HPLC-UV. After 96 h, the solids were extracted and analyzed using XRPD. […] Drug concentration in the supernatants was determined using an Agilent High Performance Liquid Chromatography (HPLC) 1260 system (Agilent Technologies, Germany) coupled with a Phenomenex Gemini NX-C18, 3 μm, 100 × 4.6 mm column (Phenomenex, Torrace, CA). The temperature of the column was set to 30 °C. The mobile phase was 0.2% H3PO4:acetonitrile (40:60, v:v for DIC and 50:50, v:v for NAP) with a flow rate of 1 mL/min. The injection volume was 20 μL, and detection was performed at 276 nm for DIC and 254 nm for NAP. Standard solutions of DIC and NAP were prepared in 0.2% H3PO4:acetonitrile (50:50, v:v) and analyzed with HPLC-UV to construct the calibration curve. […] To determine the solid-state form of the initial samples, XRPD diffractograms were recorded with an Aeris diffractometer (Malvern Panalytical B.V., Almelo, The Netherlands) using Cu Kα radiation (λ = 1.540598 Å) and a divergence slit of 0.76 mm. […] Measurements were performed in triplicate with independent samples. Additional measurements using XRPD were performed for the remaining solids after the 96 h miniaturized SF experiments.

[2] = cited from earlier work
[3] = Machine-vision-based single-particle analysis (SPA) solubility measurement, pH-solubility profile; format: physicochemical
Protocol: The SPA measurements were carried out as already previously described by Svanbäck et al. and Štukelj et al.[17],[19],[20] Briefly, the two main components of the SPA method are the flow-through setup and the analysis software. The flow-through setup enables trapping and machine-vision tracking of drug particles under steady flow–sink–conditions. The average measurement time is 5 min. The captured images are then analyzed using custom-made software, which is capable of semiautomatic particle recognition and tracking of the individual particle morphology throughout the measurement. The decrease in size, under sink conditions, according to Noyes and Whitney, is directly proportional to the equilibrium solubility of the compound. In this way, the solubility data from the images is extracted. Depending on the number of particles, the reported solubility values are an average of up to several hundred individual particles. For in-depth description and visuals, readers are directed to the three original papers cited above.

[4] = 0.05 M USP buffer Borate pH 8.0
[5] = 0.05 M USP buffer Borate pH 9.0
[6] = 0.05 M USP buffer Phosphate pH 6.0
[7] = 0.05 M USP buffer Phosphate pH 7.0
[8] = 0.05 M USP buffer Phtalate pH 3.0
[9] = 0.05 M USP buffer Phtalate pH 4.0
[10] = 0.05 M USP buffer Phtalate pH 5.0
[11] = starting material free acid, after 96 h

Measured pH of miniaturized SF experiment [1, 4] | Measured pH of miniaturized SF experiment [1, 5] | Measured pH of miniaturized SF experiment ([1]; 0.05 M USP buffer HCl pH 2.0) | Measured pH of miniaturized SF experiment [1, 6] | Measured pH of miniaturized SF experiment [1, 7] | Measured pH of miniaturized SF experiment ([1]; 0.05 M USP buffer Phosphate pH 8.0) | Measured pH of miniaturized SF experiment [1, 8] | Measured pH of miniaturized SF experiment [1, 9] | Measured pH of miniaturized SF experiment [1, 10] | solid-state form at end of SF experiment (XRPD) ([1]; starting material anhydrous salt, pH 8.0, borate and phosphate buffer) | solid-state form at end of SF experiment (XRPD) ([1]; starting material salt, initial pHs 2.0, 4.0 and 6.0) | pHmax′ SPA (apparent pHmax) ([3]; intersect of the two regions of the SPA pH-solubility profile, started with anhydrous salt) | pHmax ([3]; linear extrapolation of pH-corrected SPA values of free acid to the SF-determined solubility of the salt (Figure 2b / 5b)) | solid-state form at end of SF experiment (XRPD) ([1]; starting material anhydrous salt, initial pH 6.0 and 8.0) | solid-state form at end of SF experiment (XRPD) ([1]; starting material salt, initial pH 2.0 and 4.0) | solubility at 5 min ([3]; read-out: S0 SPA (intrinsic solubility)) [µg/mL] | Compound | solid-state form at end of SF experiment (XRPD) [1, 11] | pHmax lit. [2] | SPA solubility upon disproportionation compared to the free acid ([3]; region below pH 8)
6.0 | 6.8 | 1.9 | 5.8 | 6.6 | 6.9 | 3.0 | 4.1 | 5.0 |  |  |  |  |  |  |  | COc1ccc2cc([C@H](C)C(=O)O)ccc2c1 [naproxen, Naproxen] | the same form remained throughout the experiment |  | 
 |  |  |  |  |  |  |  |  | converted into its hydrate form | converted into a free acid |  |  |  |  |  | COc1ccc2cc([C@H](C)C(=O)O)ccc2c1 [naproxen sodium] |  | ∼8 ^c | 
 |  |  |  |  |  |  |  |  |  |  | 7.35 | 7.98 | converted into its hydrate form | converted into a free acid form |  | O=C(O)Cc1ccccc1Nc1c(Cl)cccc1Cl [diclofenac sodium] |  | ∼8 ^a^, ^e | higher solubility upon disproportionation
7.0 | 7.8 | 2.0 | 6.0 | 6.9 |  | 3.00 | 4.0 | 4.9 |  |  |  |  |  |  | 0.6 ± 0.3 (≈ 2.03 µM) | O=C(O)Cc1ccccc1Nc1c(Cl)cccc1Cl [diclofenac, Diclofenac] | remained in the same form throughout the experiment |  | 
